Results on 5 compounds are retold here after US5358951A, “Angiotensin II receptor blocking 2, 3, 6 substituted quinazolinones” (American Cyanamid Company, priority 1993, dated 1994).

The assay concerns the target T1, Angiotensin II Receptor (Bos taurus, UniProt P25104).
T1 construct: fresh adrenal glands received on crushed ice are cleaned of fatty tissues; from tissue; host or cells: beef adrenal cortex, microsomal membranes (100,000×g pellet)
T1 sequence (P25104 1-359): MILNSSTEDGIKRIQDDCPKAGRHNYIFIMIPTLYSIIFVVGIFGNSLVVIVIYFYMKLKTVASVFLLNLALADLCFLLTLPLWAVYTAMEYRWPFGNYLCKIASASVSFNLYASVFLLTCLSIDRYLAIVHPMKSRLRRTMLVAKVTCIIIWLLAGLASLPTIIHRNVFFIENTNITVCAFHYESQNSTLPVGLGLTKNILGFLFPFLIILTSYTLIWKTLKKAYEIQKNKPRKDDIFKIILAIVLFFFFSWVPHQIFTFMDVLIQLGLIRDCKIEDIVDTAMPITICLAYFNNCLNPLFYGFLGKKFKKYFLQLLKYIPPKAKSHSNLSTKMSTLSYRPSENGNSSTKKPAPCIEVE
The assay can be described thus: Receptor Binding Assay: displacement of [^125 I](Sar^1,Ile^8)AngII. Format: beef (adrenal cortex microsomal membranes). An excerpt:
Beef adrenals are obtained from a local slaughter house (Maxwell-Cohen). [^125 […]. 2200 Ci/mmole, is purchased from Dupont (NEN®, Boston, Mass.). All unlabeled AngII analogs, Dimethylsulfoxide (DMSO), nucleotides, bovine serum albumin (BSA) are purchased from Sigma Chemical Co., St. Louis, Mo. U.S.A. […] Approximately sixteen (16) to twenty (20) beef adrenal glands are processed as follows: fresh adrenal glands received on crushed ice are cleaned of fatty tissues and the tough membranes encapsulating the glands are removed and discarded. The brownish tissue forming the adrenal cortex is scraped off and finely minced with scissors before homogenization. Care is taken to avoid contamination with medullary tissue during dissection. The scraped cortices are suspended in twenty volumes of an ice-cold buffer medium consisting of 10 mM Tris.HCl (pH 7.4 at 22° C.) and containing 1.0 mM EDTA and 0.2M sucrose. Unless otherwise indicated, all subsequent operations are done at 4° C. […] The homogenate is centrifuged first at low speed (3,000×g) for 10 min. […] This P2 pellet is discarded and the liquid phase is carefully decanted off in clean centrifuge tubes and recentrifuged at high speed (100,000×g) for 60 min. The translucent final pellet is harvested and combined in a small volume (20-50.0 ml) of 50.0 mM Tris.HCl buffer, pH 7.2. A 100 ul aliquot is withdrawn and the protein content of the preparation is determined by the Lowry's method (Lowry, O. H., Rosebrough, […]. and Randall, R. J., Protein measurement with Folin phenol reagent. J. Biol. Chem., 48, 265-275, 1951). The pelleted membrane is reconstituted in 50.0 mM Tris.HCl buffer containing 0.1 mM of phenylmethylsulfonyl fluoride (PMSF) to give approximately a protein concentration of 2.5 mg per ml of tissue suspension. […] In competition studies, experimental compounds are diluted in dimethylsulfoxide (DMSO) and added in 20 ul to wells before the introduction of tissue membranes. […] Assays are performed in triplicate. The wells are left undisturbed for 60 min. at room temperature. Following incubation, all wells are harvested at once with a Brandel® Harvester especially designed for a 96 well plate (Brandel® Biomedical Research & Development Labs. Inc., Gaithersburg, Md., U.S.A.). The filter discs are washed with 10×1.0 ml of cold 0.9% NaCl to remove unbound ligand. […] This method is routinely used. The filters are removed from the filter grid and counted in a Parkard® Cobra Gamma Counter for 1 min. (Packard Instrument Co., Downers Grove, Ill., U.S.A.). The binding data are analyzed by the non-linear interactive "LUNDON-1" program (LUNDON SOFTWARE Inc., Cleveland, Ohio U.S.A.).

The mark [1] stands for this setting: continuation of Table I headed BIOLOGICAL DATA, read-out: Biological Data.
[2] abbreviates: read-out: Angiotensin II Receptor Binding IC50.

Structures can show the parent of a compound that is named as a salt. Where two headings read alike, the source gives them in different places.

`CCCCc1nc2ccc(C3(C(=O)OC)CC4CCCN4O3)cc2c(=O)n1Cc1ccc(-c2ccccc2-c2nnn[nH]2)cc1` (mixture of isomers) [Example 78, Trans(+/-)-Methyl-2-[2-butyl-3,4-dihydro-4-oxo-3-[[2'-(1H-tetrazol-5-yl)[1,1'-biphenyl]-4-yl]methyl-6-quinazolinyl]hexahydropyrrolo[1,2-b]isoxazole-2-carboxylate]: the IC50 under setting [1] is 144 nM.
Regarding `CCCCc1nc2ccc([C@@H]3C[C@H]4c5ccccc5CCN4O3)cc2c(=O)n1Cc1ccc(-c2ccccc2-c2nnn[nH]2)cc1` (relative stereo) [Example 63, Cis-2-Butyl-6-(1,5,6,10b-tetrahydro-2H-isoxazolo[3,2-a]isoquinolin-2-yl)-3-[[2'-(1H-tetrazol5-yl)[1,1'-biphenyl]-4-yl]methyl]-4(3H)-quinazolinone], the IC50 under setting [2] was 54 nM.
Take `CCCCc1nc2ccc([C@@]3(CC)C[C@@H]4CCCN4O3)cc2c(=O)n1Cc1ccc(-c2ccccc2-c2nnn[nH]2)cc1` (relative stereo) [Example 71, Cis-2-butyl-6-(2-ethylhexahydropyrrolo[1,2b]isoxazol-2-yl)-3-[[2'-[1-(1H-tetrazol-5-yl)][1,1'-biphenyl]-4-yl]methyl]-4(3H)-quinazolinone]: the IC50 under setting [2] turned out to be 63 nM.
With `CCCCc1nc2ccc([C@@]3(C)C[C@@H]4CCCN4O3)cc2c(=O)n1Cc1ccc(-c2ccccc2-c2nnn[nH]2)cc1` (relative stereo) [Example 73, Cis-2-Butyl-6-(hexahydro-2-methylpyrrolo[1,2-b]isoxazol-2-yl)-3-[[2'-(1H-(tetrazol-5-yl)[1,1'-biphenyl-4-yl]methyl]-4(3H)-quinazolinone sodium salt], the IC50 under setting [1] is 31 nM.
Take `CCCCc1nc2ccc(C3(C)CC4c5ccccc5CCN4O3)cc2c(=O)n1Cc1ccc(-c2ccccc2-c2nnn[nH]2)cc1` (stereo not drawn) [Example 64, Cis and Trans-2-Butyl-6-(1,5,6,10b-tetrahydro-2-methyl-2H-isoxazolo[3,2-a]isoquinolin-2-yl)-3-[[2'-(1H-tetrazol-5-yl][1,1'-biphenyl]-4-yl]methyl]-4(3H)-quinazolinone]: the IC50 under setting [2] is 94 nM.
